We go through 17 molecules from patent US8119647B2, “Fused pyrimidineone compounds as TRPV3 modulators” (Glenmark Pharmaceuticals S.A., priority 2008, dated 2012).

Read-outs that look alike come from different tables or passages of the source.

For the test, the target named is T1, Human TRPV3 (Homo sapiens, UniProt Q8NET8).
T1 construct: expressed in transfected cells; host or cells: CHO cells (G-418 selection)
T1 sequence (Q8NET8 1-790): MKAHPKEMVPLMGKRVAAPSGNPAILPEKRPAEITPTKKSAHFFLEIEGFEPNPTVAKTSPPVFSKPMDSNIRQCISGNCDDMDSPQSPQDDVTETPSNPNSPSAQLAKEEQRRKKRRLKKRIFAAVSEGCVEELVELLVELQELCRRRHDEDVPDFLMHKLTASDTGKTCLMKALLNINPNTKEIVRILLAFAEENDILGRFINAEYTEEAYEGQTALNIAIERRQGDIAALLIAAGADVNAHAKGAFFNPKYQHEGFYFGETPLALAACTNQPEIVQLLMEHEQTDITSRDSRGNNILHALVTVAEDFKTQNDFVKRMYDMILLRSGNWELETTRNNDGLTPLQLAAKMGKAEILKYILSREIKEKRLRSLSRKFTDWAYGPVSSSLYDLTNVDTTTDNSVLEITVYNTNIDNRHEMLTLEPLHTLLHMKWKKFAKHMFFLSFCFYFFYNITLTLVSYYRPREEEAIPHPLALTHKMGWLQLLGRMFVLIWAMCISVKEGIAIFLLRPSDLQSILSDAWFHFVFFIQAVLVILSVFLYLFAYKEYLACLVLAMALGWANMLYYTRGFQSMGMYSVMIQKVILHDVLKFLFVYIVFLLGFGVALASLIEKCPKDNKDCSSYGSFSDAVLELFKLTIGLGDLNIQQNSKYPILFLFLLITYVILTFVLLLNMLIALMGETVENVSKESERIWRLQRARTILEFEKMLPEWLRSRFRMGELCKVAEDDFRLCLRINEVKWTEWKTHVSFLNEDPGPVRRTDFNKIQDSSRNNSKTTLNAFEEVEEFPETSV
Description: Screening for TRPV3 antagonist using the 45Calcium uptake assay (inhibition of 2-APB induced cellular uptake of radioactive calcium). As to conditions: for inhibition at 1 µM: read-out: Percentage inhibition at 1.0 μM; for inhibition at 10 µM: read-out: Percentage inhibition at 10.0 μM; for IC50: class symbols. It is filed as cell-based. From the text: The illustrative examples of the present invention are screened for TRPV3 activity according to a modified procedure described in Tóth, A., Kedei, N., Wang, Y. and Blumberg, P. M. Life Sciences (2003), 73, 487-498. The screening of the compounds can be carried out by other methods and procedures known to a person skilled in the art. Such screening methods may be found in (a) Hu, H.-Z. et al. J. Biol. Chem. (2004), 279, 35741-35747; (b) Smith, G. D. et al. Nature (2002), 418, 186-190; (c) Peier, A. M. et al. Science (2002), 296, 2046-2049.
Screening for TRPV3 Antagonist Using the ^45Calcium Uptake Assay:
The inhibition of TRPV3 receptor activation was followed as inhibition of 2-aminoethoxydiphenylborate (2-APB) induced cellular uptake of radioactive calcium. Test compounds were dissolved in dimethyl sulfoxide (DMSO) to prepare 20 mM stock solution and then diluted using plain medium with DMEM/F-12 containing 1.8 mM CaCl2 to get desired concentration. Final concentration of DMSO in the reaction was 0.5% (v/v). Human TRPV3 expressing CHO cells were grown in DMEM/F-12 medium with 10% FBS, 1% penicillin-streptomycin solution, 400 μg/ml of G-418. Cells were seeded 24 h prior to the assay in 96 well plates so as to get ˜50,000 cells per well on the day of experiment. Cells were treated with test compounds for 10 minutes followed by addition of 2-APB at a final concentration of 500 μM and 5 μCi/ml ^45Ca^+2 for 4 minutes. Cells were washed and lysed using buffer containing 1% Triton X-100, 0.1% deoxycholate and 0.1% SDS. Radioactivity in the lysate was measured in Packardt Top count after addition of liquid scintillant. Concentration response curves were plotted as a % of maximal response obtained in the absence of test antagonist. IC50 value was calculated from concentration response curve by nonlinear regression analysis using GraphPad PRISM software.
Percentage inhibition at concentrations of 1.0 μM and 10.0 μM are given in the table along with IC50 (nM) values for selected examples.

[1] abbreviates: 1.0 μM test compound, human TRPV3 expressing CHO cells, 2-APB 500 μM.
Setting [2] is: 10.0 μM test compound, human TRPV3 expressing CHO cells, 2-APB 500 μM.
[3] abbreviates: human TRPV3 expressing CHO cells, 2-APB 500 μM.

In the case of `COc1cccc(/C=C/c2nc3sccn3c(=O)c2-c2ccc(N(C)C)cc2)c1OCC(C)C` [Example 41, 6-(4-Dimethylaminophenyl)-7-[(E)-2-(2-isobutoxy-3-methoxyphenyl)-1-ethenyl]-5H-[1,3]thiazolo[3,2-a]pyrimidin-5-one], the inhibition at 1 µM under setting [1] is 75.5%. In addition, the inhibition at 10 µM under setting [2] was determined as 84.5%. Further, the IC50 under setting [3] lay within 250 to 500 nM.
As for `COc1cccc(/C=C/c2nc3sccn3c(=O)c2-c2ccc(N(C)C)cc2)c1OCC(C)(C)C` [Example 42, 6-(4-Dimethylaminophenyl)-7-[(E)-2-(3-methoxy-2-neopentyloxy)phenyl-1-ethenyl]-5H-[1,3]thiazolo[3,2-a]pyrimidin-5-one], the inhibition at 1 µM under setting [1] was determined as 62.7%. Besides, the inhibition at 10 µM under setting [2] stood at 78.5%.
Consider `COc1ccc(-c2c(/C=C/c3cccc(OC)c3OCC3CC3)nc3sccn3c2=O)cc1` [Example 43, 7-[(E)-2-(2-Cyclopropylmethoxy-3-methoxyphenyl)-1-ethenyl]-6-(4-methoxy-phenyl)-5H-[1,3]thiazolo[3,2-a]pyrimidin-5-one], for which, under setting [1], the inhibition at 1 µM was determined as 63.4%. Moreover, the inhibition at 10 µM under setting [2] was determined as 94%. Further, the IC50 under setting [3] was in the range of 500 to 1000 nM.
As for `CCOc1ccc(-c2c(/C=C/c3cccc(OC)c3OCC3CC3)nc3sccn3c2=O)cc1` [Example 44, 7-[(E)-2-(2-Cyclopropylmethoxy-3-methoxyphenyl)-1-ethenyl]-6-(4-ethoxyphenyl)-5H-[1,3]thiazolo[3,2-a]pyrimidin-5-one], under setting [1], the inhibition at 1 µM came to 44%. In addition, the inhibition at 10 µM under setting [2] turned out to be 88.6%.
In the same order, the values of `COc1cccc(/C=C/c2nc3sccn3c(=O)c2-c2ccc(OCC(F)(F)F)cc2)c1OCC1CC1` [Example 45, 7-[(E)-2-(2-Cyclopropylmethoxy-3-methoxyphenyl)-1-ethenyl]-6-(4-(2,2,2-trifluoroethoxy)phenyl]-5H-[1,3]thiazolo[3,2-a]pyrimidin-5-one] are 30.7% and 77.5%.
As to `COc1cccc(/C=C/c2nc3sccn3c(=O)c2-c2ccc(OCCCC#N)cc2)c1OCC1CC1` [Example 46], for the setting “CHO”, the inhibition at 1 µM was determined as 10% and the inhibition at 10 µM turned out to be 52.8%.
As for `COc1cccc(/C=C/c2nc3sccn3c(=O)c2-c2ccc(OCC3CC3)cc2)c1OCC1CC1` [Example 47, 7-[(E)-2-(2-Cyclopropylmethoxy-3-methoxyphenyl)-1-ethenyl]-6-(4-cyclopropylmethoxyphenyl]-5H-[1,3]thiazolo[3,2-a]pyrimidin-5-one], the inhibition at 1 µM under setting [1] was 43.7%. Moreover, the inhibition at 10 µM under setting [2] was 69.2%.
With `COc1cccc(/C=C/c2nc3sccn3c(=O)c2-c2ccc(OC(F)F)cc2)c1OCC1CC1` [Example 48, 7-[(E)-2-(2-Cyclopropylmethoxy-3-methoxyphenyl)-1-ethenyl]-6-(4-difluoromethoxyphenyl]-5H-[1,3]thiazolo[3,2-a]pyrimidin-5-one], the inhibition at 1 µM under setting [1] worked out at 80%. Further, the inhibition at 10 µM under setting [2] came to 95.1%. For the same molecule, under setting [3], the IC50 is < 250 nM.
On to `O=c1c(-c2ccc(OC(F)(F)F)cc2)c(/C=C/c2cccc(F)c2OCC2CC2)nc2sccn12` [Example 49, 7-[(E)-2-(2-Cyclopropylmethoxy-3-fluorophenyl)-1-ethenyl]-6-[4-(trifluoromethoxy)-phenyl]-5H-[1,3]thiazolo[3,2-a]pyrimidin-5-one], for which, under setting [1], the inhibition at 1 µM turned out to be 41.3%. For the same molecule, the inhibition at 10 µM under setting [2] worked out at 77.3%.
Consider `COc1cccc(/C=C/c2nc3sccn3c(=O)c2-c2ccc(OC(F)(F)F)cc2)c1OCCC(C)C` [Example 50, 7-[(E)-2-{2-Isopentyloxy-3-methoxyphenyl}-1-ethenyl]-6-[4-(trifluoromethoxy)phenyl]-5H-[1,3]thiazolo[3,2-a]pyrimidin-5-one], for which, under setting [1], the inhibition at 1 µM was 81.9%. Under setting [2], the inhibition at 10 µM stood at 89.8%. The IC50 under setting [3] is < 250 nM.
For the molecule `COc1cccc(/C=C/c2nc3sccn3c(=O)c2-c2ccc(OC(F)(F)F)cc2)c1OCC(C)C` [Example 51, 7-[(E)-2-(2-Isobutoxy-3-methoxyphenyl)-1-ethenyl]-6-[4-(trifluoromethoxy)phenyl]-5H-[1,3]thiazolo[3,2-a]pyrimidin-5-one], the inhibition at 1 µM under setting [1] stood at 89.1%. For the same molecule, the inhibition at 10 µM under setting [2] worked out at 95.6%. For the same molecule, the IC50 under setting [3] is < 250 nM.
In the same order, the values of `COc1cccc(/C=C/c2nc3sccn3c(=O)c2-c2ccc(OC(F)(F)F)cc2)c1OCC(C)(C)C` [Example 52, 7-[(E)-2-{3-Methoxy-2-neopentyloxyphenyl}-1-ethenyl]-6-[4-(trifluoromethoxy)phenyl]-5H-[1,3]thiazolo[3,2-a]pyrimidin-5-one] are 78.4%, 90.3% and < 250 nM.
In the same order, the values of `CCOCCOc1c(/C=C/c2nc3sccn3c(=O)c2-c2ccc(OC(F)(F)F)cc2)cccc1OC` [Example 53, 7-[(E)-2-{2-(2-Ethoxyethoxy)-3-methoxyphenyl}-1-ethenyl]-6-[4-(trifluoromethoxy)phenyl]-5H-[1,3]thiazolo[3,2-a]pyrimidin-5-one] are 89.9%, 95.9% and < 250 nM.
As for `CCCOc1c(/C=C/c2nc3sccn3c(=O)c2-c2ccc(OC(F)(F)F)cc2)cccc1OC` [Example 54, 7-[(E)-2-(3-Methoxy-2-propoxyphenyl)-1-ethenyl]-6-[4-(trifluoromethoxy)phenyl]-5H-[1,3]thiazolo[3,2-a]pyrimidin-5-one], the inhibition at 1 µM under setting [1] was found to be 72.8%. The inhibition at 10 µM under setting [2] came to 95.3%. In addition, the IC50 under setting [3] was < 250 nM.
In the same order, the values of `CCCCCOc1c(/C=C/c2nc3sccn3c(=O)c2-c2ccc(OC(F)(F)F)cc2)cccc1OC` [Example 55, 7-[(E)-2-(3-Methoxy-2-pentyloxyphenyl)-1-ethenyl]-6-[4-(trifluoromethoxy)phenyl]-5H-[1,3]thiazolo[3,2-a]pyrimidin-5-one] are 81.7%, 92.8% and < 250 nM.
For `COc1cccc(/C=C/c2nc3sccn3c(=O)c2-c2ccc(OC(F)(F)F)cc2)c1OCCCCF` [Example 56, 4-7-[(E)-2-{2-(4-Fluorobutoxy)-3-methoxyphenyl}-1-ethenyl]-6-[4-(trifluoromethoxy)phenyl]-5H-[1,3]thiazolo[3,2-a]pyrimidin-5-one], under setting [1], the “Percentage inhibition at 1.0 μM” value came out at 80.9%. In addition, the “Percentage inhibition at 10.0 μM” value under setting [2] amounted to 93.5%. Moreover, the IC50 under setting [3] is 250 to 500 nM.
Regarding `CCCCOc1c(/C=C/c2nc3sccn3c(=O)c2-c2ccc(OC(F)(F)F)cc2)cccc1OC` [Example 57, 7-[(E)-2-(2-Butoxy-3-methoxyphenyl)-1-ethenyl]-6-[4-(trifluoromethoxy)phenyl]-5H-[1,3]thiazolo[3,2-a]pyrimidin-5-one], under setting [1], the inhibition at 1 µM came to 79.4%. The inhibition at 10 µM under setting [2] was 91.9%. The IC50 under setting [3] is < 250 nM.

The term inhibition denotes the drop in the measured response relative to a control, in per cent. The term IC50 denotes the point on the concentration scale where inhibition reaches its midpoint.
